Experimental data reported in patent US12535491B2, “Vaccine comprising protein-targeted (PT) extracellular DNA isolated from bacterial matrix” (priority 2018, dated 2026).

Assays:
[1] = tested on: beta-amyloid (Aβ); assay: Amount of Aβ in the brain of Tg2576 mice injected with S. aureus bacterial DNA, with or without DNase (sandwich ELISA); type: in vivo, mice (line Tg2576)
Excerpt: The effect on the model of increased gut permeability in mice was studied. Increased gut permeability allows increased levels of bacterial DNA in the blood circulation, leading to the increase in the level of beta amyloid (Bala, S. et al., 2014; DiBiagio, J. R. et al., 2016). DNAse prevents the appearance of a thermostable protein formed by the extracellular DNA.
Hemizygous transgenic mice expressing familial Alzheimer's disease mutant human (line Tg2576, Hsiao et al., 1996). A total of 70 male mice were used. To identify beta-amyloid (AB) amount, one quarter brain from each animal was homogenized in 70% formic acid at a weight: volume ratio of 100 mg/ml. The homogenate was sonicated for 2 min and centrifuged at 100,000 g for 1 h. After centrifugation, the supernatant fraction was removed and neutralized with 19 vol of Tris-phosphate buffer. Samples were analyzed by a modified sandwich ELISA that detects total AB. To detect human Aβ, aliquots of homogenate were added to Nunc Maxisorb plates coated with monoclonal antibody 6E10 (Senetek) capture antibody. After incubation at 4° C. overnight, human Ab was detected by monoclonal antibody 4G8 (Senetek) conjugated to horseradish peroxidase (HRP). After washing with PBS containing 0.05% Tween 20, the bound peroxidase was detected by the TMB peroxidase kit (Kirkegaard & Perry). Plates were read at 450 nm in a standard plate reader, and unknowns were quantified by comparison to known quantities of freshly dissolved Ab40 (Bachem).
Animals were injected daily, with increasing concentrations of S. aureus bacterial DNA. Control animals were injected with sterile water. DNase (2000 Kunitz units) was administered orally or by IV on day 1.

[2] = tested on: SU-DHL4 target cell lines; assay: Antibody-dependent cell-mediated cytotoxicity (ADCC) assay; type: cell-based; settings: SU-DHL4 target cells
Procedure: The efficacies of Rituximab and Rituximab-Mod were compared based on Binding to CD20-expressing target cells and antibody-dependent cell-mediated cytotoxicity [ADCC] assays.
The binding of Rituximab-Mod and rituximab was assessed on SU-DHL4 cell lines with high (1,000,000) CD20 receptor copy numbers. […] The ability of Rituximab-Mod and rituximab to mediate ADCC was assessed using SU-DHL4 target cell lines. The potency of Rituximab-Mod was higher than that of rituximab.

[3] = tested on: non-amyloid producer Escherichia coli strain RA-74; type: cell-based
[4] = tested on: microbial amyloid; type: cell-based, Escherichia coli
[5] = tested on: amyloid producing Escherichia coli strain VT-156; type: cell-based
[6] = tested on: HSV-1; type: cell-based, human Herpes Virus 1

Compound	Bacterial OD (570 nm), Escherichia coli strain RA-74 [3]	decrease in CR binding [4]	Bacterial OD (570 nm) [5]	further results
DNase				Total Aβ in the brain ([1]; DNA 5 mcg + DNase 5 mcg IV): 94 ± 23 pmol/mg; Total Aβ in the brain ([1]; DNA 5 mcg + DNase 5 mcg PO): 103 ± 35 pmol/mg; Total Aβ in the brain ([1]; DNA 20 mcg + DNase 5 mcg IV): 73 ± 12 pmol/mg; Total Aβ in the brain ([1]; DNA 20 mcg + DNase 5 mcg PO): 95 ± 12 pmol/mg
rituximab				EC50 of target cell killing (ADCC) [2]: ~0.01 µg/mL
CCN(CC)CCCC(C)Nc1c2ccc(Cl)cc2nc2ccc(OC)cc12 (stereo not shown) [Quinacrine]	1.406	about 40%	0.657	
C=CC[C@@H]1/C=C(\C)C[C@H](C)C[C@H](OC)[C@H]2O[C@@](O)(C(=O)C(=O)N3CCCC[C@H]3C(=O)O[C@H](/C(C)=C/[C@@H]3CC[C@@H](O)[C@H](OC)C3)[C@H](C)[C@@H](O)CC1=O)[C@H](C)C[C@@H]2OC [Tacrolimus]	1.382	about 40%	0.678	Number (%) of unaltered cells, Herpes virus of type I [6]: 30%; antiviral activity against the herpes virus (type I) [6]: has the antiviral activity
Pentosan polysulfate	1.416	about 40%		Bacterial OD (570 nm), Escherichia coli strain VT-56 [5]: 0.547
